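The compound was tested at five concentrations on cells cultured in 96-well plates, with a 48-hour exposure period. Abbreviation: GI50, concentration required for 50% inhibition of growth.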 Activity calls are given as the source filed them. No stated cut-off is given here; in the data, active = GI50 up to about 1.1 µM and inactive = higher. Bounds are passed on as bounds.

We go through 4 molecules from ChEMBL document CHEMBL1201862, “PubChem BioAssay data set” (2004).

Test systems include OVCAR-3; SK-OV-3; NCI-H226; HCT-15; UACC-257; HOP-62; NCI-H460; NCI-H522; SR; TK-10; HCC 2998; NCI-H23; CAKI-1; MDA-MB-231; BT-549; SNB-19; K562; HL-60; SK-MEL-28.
Assay in all cases: NCI anticancer screen, dose series, 48 h

Consider `Cc1cc2nn(C3CCCCO3)nc2cc1C` (stereo unspecified), for which the GI50 in the assay with OVCAR-3 was > 100 µM (inactive); in the assay on SK-OV-3, > 100 µM (inactive); in the assay on NCI-H226, > 100 µM (inactive); in the assay on HCT-15 it was greater than 100 µM; in the assay on UACC-257 it was > 100 µM (inactive); in the assay on HOP-62 it was > 100 µM (inactive). The GI50 with NCI-H460, with NCI-H522, in the assay with SR, in the assay on TK-10, in the assay with HCC 2998 and in the assay on NCI-H23 was > 100 µM (inactive) each time. Moreover, the GI50 in the assay on CAKI-1, with MDA-MB-231, in the assay on BT-549, in the assay on SNB-19 and in the assay on K562 was > 100 µM (inactive) each time.
For `Clc1c2ncccc2cc2nn[nH]c12`, the GI50 is > 100 µM (inactive) in the assay on OVCAR-3; > 100 µM (inactive) in the assay with SK-OV-3; 14.5 µM (inactive) in the assay with HL-60; 21.3 µM (inactive) in the assay with NCI-H226; greater than 100 µM with HCT-15; > 100 µM (inactive) in the assay on UACC-257. Moreover, the GI50 was > 100 µM (inactive) in the assay with HOP-62; 49.2 µM (inactive) in the assay on NCI-H460; 33 µM (inactive) in the assay on NCI-H522; 23.3 µM (inactive) in the assay on SR; > 100 µM (inactive) in the assay on SK-MEL-28; > 100 µM (inactive) in the assay on TK-10. The GI50 in the assay with HCC 2998, in the assay with NCI-H23, in the assay on CAKI-1, in the assay with MDA-MB-231, with BT-549 and with SNB-19 was > 100 µM (inactive) each time. In the assay with K562, the GI50 is > 100 µM (inactive).
As for `O=[N+]([O-])c1ccc(Cl)cc1N/N=C/c1cccs1`, the GI50 in the assay on OVCAR-3 was > 100 µM (inactive); in the assay on SK-OV-3, > 100 µM (inactive); in the assay with HL-60, > 100 µM (inactive); with NCI-H226, 38.5 µM (inactive); in the assay with HCT-15 it was greater than 100 µM; with UACC-257, > 100 µM (inactive). Besides, the GI50 in the assay with HOP-62, in the assay on NCI-H460, in the assay on NCI-H522, in the assay on SR, in the assay with SK-MEL-28 and with TK-10 was > 100 µM (inactive) throughout. Further, the GI50 with HCC 2998, in the assay on NCI-H23, in the assay on CAKI-1, with MDA-MB-231, with BT-549 and in the assay with SNB-19 was > 100 µM (inactive) throughout. The GI50 with K562 is > 100 µM (inactive).
As to `Cc1cc2c(c3oc(C4(C)OC4C4OC4C)cc(=O)c13)C(=O)c1c(O)c(C3CC(C)(N(C)C)C(O)C(C)O3)cc(C3CC(N(C)C)C(O)C(C)O3)c1C2=O` (stereo unspecified), the GI50 is 0.000191 µM (active) in the assay on OVCAR-3; 0.000215 µM (active) in the assay with SK-OV-3; 0.0025 µM (active) in the assay with HL-60; 0.000116 µM (active) in the assay on UACC-257; 5.79e-05 µM (active) with HOP-62; 0.0025 µM (active) in the assay on NCI-H460. Besides, the GI50 in the assay on NCI-H522 was 0.00275 µM (active); with SR, 6.17e-05 µM (active); in the assay with TK-10, 0.000197 µM (active); in the assay on HCC 2998 it was 0.00014 µM (active); with NCI-H23, 0.0025 µM (active); with CAKI-1 it was 5.46e-05 µM (active). Moreover, the GI50 is 0.000227 µM (active) with MDA-MB-231, 0.00011 µM (active) in the assay on BT-549, 0.0025 µM (active) with SNB-19 and 0.0025 µM (active) in the assay on K562.
